# Reference: patent publication US20240366594A1, “Small Molecule Inhibitors of Formation of Neutrophil-Derived Extracellular Traps (NETosis) and Uses Thereof” (The Brigham and Women's Hospital, Inc., priority 2021, published 2024)
# Tested on: human neutrophils
# Experiment: Expansion of nuclei (area of DAPI-stained nuclei) in PMA-treated human neutrophils
# Type: cell-based
# Conditions: 1 μM PMA; FIGS. 1C and 1D
# Method: FIGS. 1A-H. Class I/II HDACs drive NET formation • (A and B) Freshly purified human (A) or mouse (B) neutrophils were treated with the indicated HDAC inhibitors at different doses (10, 2, 0.4, 0.08 μM), or with GSK484 (10 μM), for 1 h and then stimulated with 1 μM PMA for 3 h. Cells were fixed and stained with anti-citrullinated histone H3 (CitH3) antibody. NETosis induction was measured as the level of anti-CitH3 fluorescent signal. PMA alone represents 100% of NET induction. “-”: Cells treated with the highest dose of the indicated drug but not activated with PMA. • (C and D) Human neutrophils were treated, or not, with ricolinostat or GSK484 and then stimulated with 1 μM PMA. NETosis induction was measured as area of nuclei stained with DAPI. (C) 3D reconstruction of nuclei in each treatment (grid size 7.8 μm). (D) Quantification of DAPI signal from multiple fields of view (D) (n=9 for unstimulated, not pretreated with any drug [NT] and ricolinostat, n=7 for GSK484). • (E and F) Human neutrophils were treated as in (C-D), and immunoblot analysis of the indicated proteins was performed. Relative quantification of band intensity was analyzed with ImageJ software (F). White violins plots depict the quantification of histone H3 acetylation; red violin plots depict the quantification of histone H3 citrullination. […] ROS production was measured by luminescence with luminol-HRP. […]
compound,measurement,value
O=C(CCCCCCNC(=O)c1cnc(N(c2ccccc2)c2ccccc2)nc1)NO [ricolinostat],expansion of nuclei (area of nuclei stained with DAPI),significantly reduced
